Data from PubChem BioAssay (NCI).
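Cells were grown in 96-well plates and exposed to each compound for 48 hours at five concentrations; endpoints were interpolated linearly between bracketing concentrations, or set to the highest concentration if not reached. TGI marks complete inhibition of growth.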

Assays:
Assay in all cases: NCI tumour cell line growth inhibition, 48 h
[1] = test system: NCI-H522 lung
[2] = test system: SK-MEL-2 melanoma
[3] = test system: MDA-N
[4] = test system: OVCAR-4 ovarian
[5] = test system: MDA-MB-435
[6] = test system: IGROV1 ovarian
[7] = test system: NCI/ADR-RES ovarian
[8] = test system: SNB-19 CNS
[9] = test system: U251 CNS
[10] = test system: UO-31 renal
[11] = test system: TK-10 renal
[12] = test system: SK-MEL-5 melanoma
[13] = test system: HCC-2998 colon
[14] = test system: COLO 205 colon
[15] = test system: A498 renal
[16] = test system: SF-268 CNS
[17] = test system: UACC-62 melanoma
[18] = test system: SR leukemia
[19] = test system: ACHN renal
[20] = test system: HL-60(TB) leukemia
[21] = test system: MDA-MB-231 breast
[22] = test system: K-562 leukemia
[23] = test system: MOLT-4 leukemia
[24] = test system: PC-3 prostate
[25] = test system: UACC-257 melanoma
[26] = test system: SN12C renal
[27] = test system: SK-MEL-28 melanoma
[28] = test system: BT-549 breast
[29] = test system: SK-OV-3 ovarian
[30] = test system: MALME-3M melanoma
[31] = test system: SF-539 CNS
[32] = test system: SF-295 CNS
[33] = test system: CCRF-CEM leukemia
[34] = test system: RPMI-8226 leukemia
[35] = test system: HCT-116 colon
[36] = test system: OVCAR-8 ovarian
[37] = test system: A549 NSCLC
[38] = test system: LOX IMVI melanoma
[39] = test system: KM12 colon
[40] = test system: OVCAR-5 ovarian
[41] = test system: HOP-62 NSCLC
[42] = test system: DU-145 prostate
[43] = test system: EKVX NSCLC
[44] = test system: OVCAR-3 ovarian
[45] = test system: SW-620 colon
[46] = test system: HCT-15 colon
[47] = test system: NCI-H460 lung
[48] = test system: NCI-H226 lung
[49] = test system: MCF7 breast
[50] = test system: HT29 colon
[51] = test system: T-47D breast
[52] = test system: 786-0 renal
[53] = test system: CAKI-1 renal
[54] = test system: HOP-92 NSCLC
[55] = test system: HS 578T breast
[56] = test system: NCI-H23 lung
[57] = test system: XF 498 CNS
[58] = test system: LXFL 529 NSCLC
[59] = test system: M19-MEL melanoma
[60] = test system: KM20L2 colon
[61] = test system: RXF 393 renal
[62] = test system: SNB-78 CNS
[63] = test system: DMS 273 small cell lung
[64] = test system: DMS 114 small cell lung
[65] = test system: M14 melanoma
[66] = test system: SNB-75 CNS

C[C@]12CC[C@H]3[C@@H](CCC4=CC(=O)CC[C@@]43C)[C@@H]1CC[C@@H]2C(=O)Nc1ccc([N+](=O)[O-])c(C(F)(F)F)c1
TGI [1]: 37.2 µM
TGI [2]: 33.2 µM
TGI [3]: > 10 µM
TGI [4]: 34.9 µM
TGI [5]: 32.3 µM
TGI [6]: 43.7 µM
TGI [7]: 38.5 µM
TGI [8]: 36.8 µM
TGI [9]: 31.5 µM
TGI [10]: 32.8 µM
TGI [11]: 35.3 µM
TGI [12]: 32.5 µM
TGI [13]: 26.4 µM
TGI [14]: 36.7 µM
TGI [15]: 33.6 µM
TGI [16]: 36.5 µM
TGI [17]: 31.9 µM
TGI [18]: 87.4 µM
TGI [19]: 38.9 µM
TGI [20]: > 100 µM
TGI [21]: 43.4 µM
TGI [22]: 73.7 µM
TGI [23]: 70.8 µM
TGI [24]: 40 µM
TGI [25]: > 10 µM
TGI [26]: 41 µM
TGI [27]: 37.4 µM
TGI [28]: 35.6 µM
TGI [29]: 25.4 µM
TGI [30]: 31.2 µM
TGI [31]: 33.5 µM
TGI [32]: 31.7 µM
TGI [33]: 71.3 µM
TGI [34]: > 100 µM
TGI [35]: 32.2 µM
TGI [36]: 90.9 µM
TGI [37]: 37.1 µM
TGI [38]: 30.5 µM
TGI [39]: 36.4 µM
TGI [40]: > 10 µM
TGI [41]: 67.1 µM
TGI [42]: 42.3 µM
TGI [43]: 27.8 µM
TGI [44]: 60 µM
TGI [45]: 37.6 µM
TGI [46]: 25.7 µM
TGI [47]: 33.4 µM
TGI [48]: 39 µM
TGI [49]: 30.5 µM
TGI [50]: 32.1 µM
TGI [51]: 37.8 µM
TGI [52]: 31.2 µM
TGI [53]: 35.9 µM
TGI [54]: 58.2 µM
TGI [55]: 38.4 µM
TGI [56]: > 10 µM

Cc1c(C(=O)/C=C/c2c(Cl)cccc2Cl)c(=O)n(-c2ccccc2)n1C
TGI [1]: 48.5 µM
TGI [2]: 75 µM
TGI [6]: > 100 µM
TGI [8]: > 100 µM
TGI [57]: 71 µM
TGI [58]: 31.1 µM
TGI [59]: > 100 µM
TGI [9]: 2.98 µM
TGI [10]: > 100 µM
TGI [11]: > 100 µM
TGI [13]: 65.8 µM
TGI [14]: > 100 µM
TGI [15]: 98.4 µM
TGI [16]: > 100 µM
TGI [60]: > 100 µM
TGI [17]: > 100 µM
TGI [19]: > 100 µM
TGI [61]: 20.4 µM
TGI [23]: > 100 µM
TGI [25]: > 100 µM
TGI [26]: > 100 µM
TGI [27]: > 100 µM
TGI [29]: > 100 µM
TGI [30]: > 100 µM
TGI [32]: 75.9 µM
TGI [62]: > 100 µM
TGI [33]: 56.6 µM
TGI [63]: 33.7 µM
TGI [35]: > 100 µM
TGI [36]: > 100 µM
TGI [37]: 74.9 µM
TGI [64]: > 100 µM
TGI [38]: 41.8 µM
TGI [39]: 44.8 µM
TGI [40]: > 100 µM
TGI [43]: > 100 µM
TGI [44]: 73.5 µM
TGI [45]: 25.9 µM
TGI [46]: > 100 µM
TGI [47]: 82.7 µM
TGI [48]: 39.1 µM
TGI [50]: > 100 µM
TGI [52]: 38.6 µM
TGI [53]: > 100 µM
TGI [54]: 74.6 µM

CNCCCNC1(c2cc3ccccc3s2)CCCCC1
TGI [1]: 19.1 µM
TGI [2]: 10.9 µM
TGI [3]: 5.85 µM
TGI [4]: 27 µM
TGI [5]: 5.86 µM
TGI [6]: 25.5 µM
TGI [7]: 29.9 µM
TGI [8]: 24.8 µM
TGI [65]: 8.06 µM
TGI [9]: 16.4 µM
TGI [10]: 7.36 µM
TGI [11]: 19.4 µM
TGI [12]: 5.68 µM
TGI [13]: 2.61 µM
TGI [14]: 3.8 µM
TGI [15]: 14.1 µM
TGI [16]: 25.3 µM
TGI [17]: 3.87 µM
TGI [18]: 3.44 µM
TGI [19]: 26.9 µM
TGI [61]: 12.2 µM
TGI [20]: 18.9 µM
TGI [21]: 12.6 µM
TGI [22]: 4.11 µM
TGI [23]: 7.48 µM
TGI [24]: 21.5 µM
TGI [66]: 19.5 µM
TGI [25]: 3.35 µM
TGI [26]: 18.4 µM
TGI [27]: 3.91 µM
TGI [28]: 29.8 µM
TGI [29]: 29.1 µM
TGI [30]: 4.57 µM
TGI [31]: 7.37 µM
TGI [32]: 27.5 µM
TGI [33]: 4.51 µM
TGI [34]: 6.18 µM
TGI [35]: 14.9 µM
TGI [36]: 28.4 µM
TGI [37]: 20.4 µM
TGI [38]: 9.94 µM
TGI [39]: 16.3 µM
TGI [40]: 27.5 µM
TGI [41]: 22.4 µM
TGI [42]: 24.2 µM
TGI [43]: 26.4 µM
TGI [44]: 25.4 µM
TGI [45]: 26.3 µM
TGI [46]: 21.7 µM
TGI [47]: 9.09 µM
TGI [48]: 36.6 µM
TGI [49]: 15.5 µM
TGI [50]: 7.94 µM
TGI [51]: 11.9 µM
TGI [52]: 9.87 µM
TGI [53]: 22.1 µM
TGI [54]: 14.8 µM
TGI [55]: 29.1 µM
TGI [56]: 30.6 µM
